Measured values: publication PMC10747602, “Dose Response, Dosimetric, and Metabolic Evaluations of Replacement PFAS Perfluoro-(2,5,8-trimethyl-3,6,9-trioxadodecanoic) Acid (HFPO-TeA)” (Toxics, 2023)
“And” between values parts separate entries of the source, which are not always exact repeats. Equal entries are not always repeated.

Key:
[1] = In vitro-in vivo extrapolation (IVIVE) to estimate Css, human; conditions: for Css / Css (steady-state concentration, plasma): IVIVE, BW 70 kg; for Css: ID 0.042 mg/kg/hr; for Css (steady-state concentration, plasma): intake dosage 1 mg/kg/day; for fraction unbound: blood, fub=fup/(1-hemocrit ref value), hematocrit 0.45; for Clint: scaled (HPGL 110, Vl 1596 g)
Protocol: (§1) Fraction unbound (fu) in plasma (fup) and percent stability calculations are detailed in Supplementary Text S10. Hepatic clearance, the fu in blood (fub) (fu in plasma adjusted for blood:plasma partitioning), and renal clearance were used to derive the steady-state concentration (Css) of each compound that will be used for in vitro–in vivo extrapolation (IVIVE). Renal clearance was calculated using the glomerular filtration rate (a species-dependent constant) and the fub. The Css calculation is detailed in Supplementary Text S11.
(§2) Linear regression analysis in conjunction […]
(§3) cells in the Clint equation. […]
(§4) concentration by the T300 min concentration (Equation E). Chemical stability in plasma was assessed […]
(§5) (F) Percent Stability = T300minutesT60minutes∗100 […]
(§6) blood (fub) of the parent compound. The Clhepatic calculation is shown in the second part of the denominator of Equation G; it is the product of the species dependent liver blood flow constant, the fub of the parent compound, and the experimentally derived intrins ic clearance (s hown in Equation D) divided by the sum these three values. All values used in Equation G are for first order conditions of metabolism in the liver. All calculations, scalars, and species dependent values used to conduct the Css calculation to facilitate in vitro-in vivo extrapolation (IVIVE) are provided Table S19 within the Excel worksheet, the tab […]
(§7) Based on the principle of reverse dosimetry, the Css values derived from IVIVE will be u sed as conversion factors to generate AEDs according to Equation H. In this equation, the AED is linearly related to the in vitro concentration and inversely related to the Css. It is only valid for first-order metabolism that is expected at ambient exposure levels.
(§8) (H) AED ൮ mgkg൲ = in vitro concentration (µM )

rat hepatocytes = assay: Hepatocyte metabolic stability (clearance) assay, rat hepatocytes; conditions: for Negative Control Data, Heat Treated (HT), 15 min / Negative Control Data, Heat Treated (HT), 240 min: heat treated rat hepatocytes; for Negative Control Data, Heat Treated (HT), 15 min / Negative Control Data, Heat Treated (HT), 240 min / Negative Control Data, No cells (NC), 15 min / Negative Control Data, No cells (NC), 240 min / Ln Concentration, 0 min / Ln Concentration, 15 min / Ln Concentration, 30 min / Ln Concentration, 60 min / Ln Concentration, 120 min / Ln Concentration, 240 min / Linear Regression Best-Fit Slope (Ln concentration vs time): 1000 nM; for Negative Control Data, Heat Treated (HT), 15 min / Negative Control Data, Heat Treated (HT), 240 min / Negative Control Data, No cells (NC), 15 min / Negative Control Data, No cells (NC), 240 min: Ln concentration; for Negative Control Data, Heat Treated (HT), 15 min / Negative Control Data, Heat Treated (HT), 240 min / Negative Control Data, No cells (NC), 15 min / Negative Control Data, No cells (NC), 240 min / Ln Concentration, 0 min / Ln Concentration, 15 min / Ln Concentration, 30 min / Ln Concentration, 60 min / Ln Concentration, 120 min / Ln Concentration, 240 min: Rep 1-3; for Clin vitro: rat hepatocytes, 1 µM; for Ln Concentration, 0 min / Ln Concentration, 15 min / Ln Concentration, 30 min / Ln Concentration, 60 min / Ln Concentration, 120 min / Ln Concentration, 240 min / Linear Regression Best-Fit Slope (Ln concentration vs time): suspended rat hepatocytes; for Linear Regression Best-Fit Slope (Ln concentration vs time): time in min
Protocol: Information on the chemicals and materials used in the hepatocyte metabolic work can be found in Supplementary Text S9 and Table S3. In vitro evaluations of hepatocyte metabolic stability were performed in human and rat hepatocytes, as previously described. Briefly, pooled, cryopreserved hepatocyte suspensions were thawed, assessed for viability, and then diluted in William’s medium E containing dexamethasone and cell maintenance cocktail B to achieve a cell density of 50,000 cells/100 µL. The assay was started by adding hepatocyte suspensions to wells of 96-well polypropylene plates containing an equal volume of media with 2 µM of analyte (final assay concentration: 1 µM). Plates were placed in a 37 °C cell culture incubator (5% CO2) on a shaker set to 200 rpm. Time points assessed were T0, T15, T30, T60, T120, and T240 min. At each time point, the plates were removed from the shaker and the incubates were crashed with an equal volume of ice-cold ACN containing 1.2% FA and 16 ng/mL of ^13C3 -HFPO-DA. After chilling and centrifugation at 4122× g, the supernatants were transferred to new collection plates and stored at −70 °C until analysis for the parent compound on the Waters instrumentation described below. Immediately prior to analysis, samples were thawed, vortexed, and centrifuged at 4200× g, and then diluted 1:4 in 95:5 H2O/ACN with 2.5 mM of ammonium acetate. Negative controls, including no cell controls and metabolically inactivated hepatocytes, were run concurrently to assess the chemical stability over the time course.
Intrinsic clearance (Clint; hepatic clearance) calculations are detailed in Supplementary Text S9 [57].
Targeted, quantitative analysis of in vitro hepatocyte metabolic stability and plasma protein binding assay samples was conducted on a Waters Xevo-TQS micro mass spectrometer (Waters, Milford, MA, USA) ultra-high-performance liquid chromatography tandem mass spectrometry system (UPLC-MS/MS), modified with a PFAS analysis kit. Samples were analyzed in negative ion mode with UniSpray ionization. A CORTECS T3 column (Waters CORTECS, 3 × 100 mm, particle size 2.7 µm) was used for chromatographic separation with a flow rate of 0.6 mL/min and a temperature of 55 °C. Gradient elution was used with eluent A (95:5 H2O/ACN) and eluent B (95:5 ACN/H2O) with 2.5 mM of ammonium acetate. The gradient is available in Table S11. Additional details for MS parameters are found in Table S12 and monitored transitions are found in Table S13.
Table S2: Data processing parameters used with Sciex MarkerView 1.3.1.
Support ing Text S9: Hepatocyte Metabolic Stability Assay Materials, Chemicals, and Calculations
Pooled human and rat cryopreserved primary hepatocyte suspensions were both obtained from
BioIVT, a US Food and Drug Administration-licensed and inspected donor center, and produced using
non-transplantable tissue.
William’s E media, dexamet hasone (98% pure), and cell maintenance cocktail B were obtained from
Thermo Fisher Scientific (Waltham, MA, USA), the OptiThaw hepatocyte kit from Sekisui/Xenotech
(Tokyo, Japan), and the trypan blue s (Sekisui/ Xenotech, Tokyo, Japan) and the trypan blue solution from […]

[2] = In vitro-in vivo extrapolation (IVIVE) to estimate Css, rat; conditions: for Css / Css (steady-state concentration, plasma): IVIVE, BW 0.25 kg; for Css: ID 0.042 mg/kg/hr; for Css (steady-state concentration, plasma): intake dosage 1 mg/kg/day; for fraction unbound at 300 min: Sprague Dawley, blood, fub=fup/(1-hemocrit ref value), hematocrit 0.439; for Clint: scaled (HPGL 117, Vl 9.5 g)
Protocol: as §1, §2, §3, §4, §5, §6, §7, §8

| SMILES | Clhep (hepatic clearance) [1] [L/h] | Css [1] [ng/mL] | Css (steady-state concentration, plasma) [1] | fraction unbound [1] | Clint [1] [µL/min] | Negative Control Data, Heat Treated (HT), 15 min (rat hepatocytes) | Negative Control Data, Heat Treated (HT), 240 min (rat hepatocytes) | Negative Control Data, No cells (NC), 15 min (rat hepatocytes) | Negative Control Data, No cells (NC), 240 min (rat hepatocytes) | Clin vitro (rat hepatocytes) [µL/min/106 cells] | Ln Concentration, 0 min (rat hepatocytes) | Ln Concentration, 15 min (rat hepatocytes) | Ln Concentration, 30 min (rat hepatocytes) | Ln Concentration, 60 min (rat hepatocytes) | Ln Concentration, 120 min (rat hepatocytes) | Ln Concentration, 240 min (rat hepatocytes) | Linear Regression Best-Fit Slope (Ln concentration vs time) (rat hepatocytes) | Clhep (hepatic clearance) [2] [L/h] | Css [2] [ng/mL] | Css (steady-state concentration, plasma) [2] | also measured |
| --- | --- | --- | --- | --- | --- | --- | --- | --- | --- | --- | --- | --- | --- | --- | --- | --- | --- | --- | --- | --- | --- |
| O=C(O)C(F)(OC(F)(F)C(F)(OC(F)(F)C(F)(OC(F)(F)C(F)(F)C(F)(F)F)C(F)(F)F)C(F)(F)F)C(F)(F)F (stereo not drawn) [HFPO-TeA, perfluoro-(2,5,8-trimethyl-3,6,9-trioxadodecanoic) acid] | 0 | 19420 | 29.34 µM and 29.3351 µM | 0.0226 | 0 | 2.6401 and 2.4357 and 2.5979 | 3.3942 and 3.4965 and 3.9620 | 2.6401 and 2.4357 and 2.5979 | 3.6957 and 3.6025 and 3.5122 | 0 | 3.0306 and 2.9008 and 2.9997 | 3.0932 and 2.2706 and 2.9515 | 4.2083 and 3.3638 and 2.7617 | 3.2078 and 2.9997 and 2.8429 | 4.0404 and 3.2267 and 2.8611 | 4.3810 and 4.0785 and 4.0446 | 0.001258 | 0 | 12550 | 19 µM and 18.96 µM and 18.9581 µM | fraction unbound at 300 min [2]: 0.0105; Clint [2]: 0 µL/min |
| O=C(O)C(F)(OC(F)(F)C(F)(OC(F)(F)C(F)(F)C(F)(F)F)C(F)(F)F)C(F)(F)F (stereo not drawn) [HFPO-TA, perfluoro-(2,5-dimethyl-3,6-dioxanonanoic) acid] | 0 | 186410 | 375.76 µM and 375.7648 µM | 0.0024 | 0 | 4.1725 and 4.8897 and 5.4522 | 4.9004 and 4.9391 and 4.9107 | 4.1725 and 4.8897 and 5.4522 | 3.9230 and 4.2019 and 3.8754 | 0 | 4.5979 and 4.6454 and 4.5374 | 4.8189 and 4.7145 and 4.8521 | 4.7856 and 4.6050 and 4.6111 | 4.8438 and 4.7495 and 4.8027 | 4.6843 and 4.6317 and 4.5468 | 4.7393 and 4.9247 and 4.8505 | 0.0003164 | 0 | 40600 | 81.84 µM and 81.8399 µM | fraction unbound at 300 min [2]: 0.0032; Clint [2]: 0 µL/min |
| O=C(O)C(F)(OC(F)(F)C(F)(F)C(F)(F)F)C(F)(F)F (stereo not drawn) [HFPO-DA, perfluoro-2-methyl-3-oxahexanoic acid] | 0 | 24670 | 74.75 µM and 74.7454 µM | 0.0178 | 0 | 4.4280 and 4.9483 and 5.2322 | 4.4378 and 4.5247 and 4.4650 | 4.4280 and 4.9483 and 5.2322 | 4.5318 and 4.4615 and 4.4489 | 0 | 4.5114 and 4.4660 and 4.4552 | 4.5017 and 4.4578 and 4.5341 | 4.4026 and 4.3249 and 4.4576 | 4.2774 and 4.4540 and 4.5417 | 4.3832 and 4.5273 and 4.3707 | 4.5604 and 4.5454 and 4.5567 | 0.0002303 | 0 | 2400 | 7.27 µM and 7.2674 µM | fraction unbound at 300 min [2]: 0.0547; Clint [2]: 0 µL/min |
